Source: patent US6291677A, “Compounds having activity as inhibitors of cytochrome P450RAI” (Allergan Sales, Inc., priority 2000, dated 2001)

Columns and labels:
[1] = tested on: psoriasis; conditions: treatment with liarozole; cited from earlier work
[2] = tested on: skin of hairless mice; experiment: topical skin irritation test in hairless mice; format: in vivo, female hairless mice (Crl:SKH1-hrBR); conditions: once daily days 1 through 5, mean±SD
Text: Mice were housed individually throughout the dosing period.
Doses are disclosed as nmol/25 g.
The grading scale used is as follows:
Values can range from 0-9.
Values can range from 0-8.

[3] = target: T1, RARα (Homo sapiens, UniProt P10276); experiment: ligand binding assay, RARα; conditions: read-out: Kd RAR α
T1 sequence (P10276 1-462): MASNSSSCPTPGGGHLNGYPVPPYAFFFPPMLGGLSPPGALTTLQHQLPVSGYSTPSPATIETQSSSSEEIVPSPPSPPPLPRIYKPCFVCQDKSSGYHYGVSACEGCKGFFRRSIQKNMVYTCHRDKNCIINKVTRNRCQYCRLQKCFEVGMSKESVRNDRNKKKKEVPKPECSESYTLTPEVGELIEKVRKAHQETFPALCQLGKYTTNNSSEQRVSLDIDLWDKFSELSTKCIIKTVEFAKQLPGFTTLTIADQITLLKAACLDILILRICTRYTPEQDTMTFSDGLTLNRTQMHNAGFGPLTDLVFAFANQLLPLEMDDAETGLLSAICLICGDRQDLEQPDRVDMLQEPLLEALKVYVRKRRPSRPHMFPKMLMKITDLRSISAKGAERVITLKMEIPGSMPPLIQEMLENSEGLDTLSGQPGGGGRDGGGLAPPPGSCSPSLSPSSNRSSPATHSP
Text: Assays described below measure the ability of a compound to bind to, and/or activate various retinoid receptor subtypes. […] In the below described assays the ability of the compounds to bind to RARα, RARβ, RARγ,RXRα, RXRβ and RXRγ receptors, and the ability or inability of the compounds to activate transcription of a reporter gene through these receptor subtypes can be tested.

[4] = target: T2, P450RAI-1 (Homo sapiens, UniProt O43174); experiment: cell-based; conditions: intact HeLa, P450RAI-1 stably transfected, [3H]-RA, 3 hours at 37° C; read-out: P450RAI INHIBITION DATA INTACT HELA IC50
T2 sequence (O43174 1-497): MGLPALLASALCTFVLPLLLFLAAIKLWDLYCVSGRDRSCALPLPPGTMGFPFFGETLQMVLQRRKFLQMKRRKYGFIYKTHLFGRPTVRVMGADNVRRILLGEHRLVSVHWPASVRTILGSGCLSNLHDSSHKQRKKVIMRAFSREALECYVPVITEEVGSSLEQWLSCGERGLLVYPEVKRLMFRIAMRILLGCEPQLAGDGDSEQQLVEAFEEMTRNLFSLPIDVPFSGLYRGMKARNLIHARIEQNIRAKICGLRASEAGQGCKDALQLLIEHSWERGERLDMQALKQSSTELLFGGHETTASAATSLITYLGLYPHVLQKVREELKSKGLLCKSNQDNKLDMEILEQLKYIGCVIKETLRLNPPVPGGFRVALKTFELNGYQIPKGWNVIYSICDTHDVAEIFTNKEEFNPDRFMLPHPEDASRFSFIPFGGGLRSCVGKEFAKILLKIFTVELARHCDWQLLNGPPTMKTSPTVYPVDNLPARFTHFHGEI
Experimental: FIG. 1 is a schematic representation of the P450RAI cell based assay utilized to evaluate the ability of the compounds of the invention to inhibit the Cytochrome P450RAI enzyme.
P450RAI-1 Cell-Based Inhibitor Assay:
P450RAI-1 stably transfected HeLa cells are maintained in […] tissue culture dishes in Modified Eagle's Medium (MEM) containing 10% Fetal Bovine Serum (FBS) and 100 μg/ml hygromycin. Exponentially growing cells are harvested by incubating in trypsin. Cells are then washed with 1× Phosphate Buffered Saline (PBS) and plated in a 48-well plate at 5×10^5 cells in 0.2 ml MEM medium containing 10% FBS and 0.05 μCi [^3 H]-RA in the presence or absence of increasing concentrations of the test compounds. The compounds are diluted in 100% DMSO and then added in triplicate wells at either 10, 1 or 0.1 μM final concentration. As a positive control for RA metabolism inhibition, cells are also incubated with ketoconazole at 100, 10 and 1 μM. Cell are incubated for 3 hours at 37° C. […] The water soluble radioactivity is quantified using a β-scintillationcounter. IC50 values represent the concentration of inhibitor required to inhibit all-trans-RA metabolism by 50 percent and are derived manually from log-transformed data.

[5] = tested on: skin; conditions: humans; topical ATRA, oral 13-cis RA and etretinate; cited from earlier work
[6] = tested on: RARβ; experiment: chimeric receptor transactivation assay, RARβ; format: cell-based; conditions: unit assumed
Text: Assays described below measure the ability of a compound to bind to, and/or activate various retinoid receptor subtypes. When in these assays a compound binds to a given receptor subtype and activates the transcription of a reporter gene through that subtype, then the compound is considered an agonist of that receptor subtype. […] In the below described assays the ability of the compounds to bind to RARα, RARβ, RARγ,RXRα, RXRβ and RXRγ receptors, and the ability or inability of the compounds to activate transcription of a reporter gene through these receptor subtypes can be tested.
The results obtained in this assay are expressed in EC50 numbers, as they are also in the chimeric receptor transactivation assay. The results of ligand binding assay are expressed in Kd numbers.

For Clc1cccc(C(c2ccc3[nH]cnc3c2)n2ccnc2)c1 (stereo not drawn) [liarozole], the “retinoid-like effects, amelioration of psoriasis” value [1] is listed as “effects similar to treatment by retinoids, for example amelioration of psoriasis”.

For CC1(C)CC(C)(C)c2cc(C#Cc3ccc(CC(=O)O)c(F)c3)cc(C3CC3)c2O1 [Compound 38, [4-(8-Cyclopropyl-2,2,4,4-tetramethyl-chroman-6-yl-ethynyl)-2-fluorophenyl]acetic acid], the “Cutaneous Toxicity Score (Blackjack Score)” value (from here on “Cutaneous Toxicity Score”) ([2]; 100 nmole) was 1 ± 1, the “Cutaneous Toxicity Score” value ([2]; 1000 nmole) was 10 ± 1 and the Kd [3] was 10 µM.

Cc1cc(C#Cc2ccc(CC(=O)O)cc2)ccc1Cn1ccnc1 [Compound 121, [4-(4-Imidazol-1-yl-methyl-3-methyl-phenylethynyl)-phenyl]-acetic acid] showed an IC50 [4] of 0.18 µM.

For CCOC(=O)/C=C(C)/C=C/C=C(C)/C=C/c1c(C)cc(OC)c(C)c1C [etretinate], the skin irritation [5] is listed as “substantial skin irritation in humans”.

In the case of CC1=C(/C=C/C(C)=C/C=C/C(C)=C/C(=O)O)C(C)(C)CCC1 [all-trans-retinoic acid], the skin irritation [5] is listed as “substantial skin irritation in humans”.

In the case of CC1=C(/C=C/C(C)=C/C=C/C(C)=C\C(=O)O)C(C)(C)CCC1 [13-cis RA], the skin irritation [5] is listed as “substantial skin irritation in humans”.

Work on CC(C)N(C)C1CCC(C)(C)c2cc(C#Cc3ccc(C(=O)O)cc3)ccc21 (stereo not drawn) [Compound 26] yielded an IC50 [4] of 10 µM.

In the case of CN(C1CC1)C1CCC(C)(C)c2cc(C#Cc3ccc(CC(=O)O)cc3)ccc21 (stereo not drawn) [Compound 8, 4-[(5-(Cyclopropyl-methyl-amino)-8,8-dimethyl-5,6,7,8-tetrahydro-naphthalene-2-yl-ethynyl)-phenyl]-acetic acid], the “Cutaneous Toxicity Score” value ([2]; 100 nmole) is reported as 5 ± 2, the “Cutaneous Toxicity Score” value ([2]; 300 nmole) is reported as 8 ± 3 and the “Cutaneous Toxicity Score” value ([2]; 1000 nmole) is reported as 12 ± 1. It also gave a Kd [3] of 10 µM and a (EFFICACY) RAR β [6] of 96%.

Work on CC1(C)CC(C)(C)c2cc(C#Cc3ccc(CC(=O)O)c(F)c3)ccc2O1 [Compound 32, [2-Fluoro-4-(2,2,4,4-tetramethyl-chroman-6-yl-ethynyl)phenyl]acetic acid] yielded an IC50 [4] of 0.13 µM.
